Source: US11339144B2 (Navitor Pharmaceuticals, Inc., priority 2017, dated 2022)

Experiments:
Rheb = Rheb (Homo sapiens (Human), UniProt Q15382); assay: Affinity Selection Mass Spectrometry (ASMS); type: binding; settings: affinity (R3/R0) in Affinity Selection Mass Spectrometry assay
Summary of the method: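 Affinity selection used 2 μM compound with 60 μM Rheb and 180 μM GDP for 30 min at room temperature. After 10 kDa ultrafiltration washes, protein was denatured in MeCN and bound compound quantified by C18 UPLC with Q-TOF MS, against a no-protein control.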

[1] = target: HA-GST-Rheb (GTP-γ-S loaded) activating mTORC1 (Homo sapiens (Human), UniProt Q15382); assay: Rheb-dependent in vitro kinase assay (Rheb-IVK; LanthaScreen or Western readout); type: biochemical; settings: Rheb-dependent in vitro kinase assay; read-out: IVK IC50
HA-GST-Rheb (GTP-γ-S loaded) activating mTORC1, sequence (Q15382 1-181): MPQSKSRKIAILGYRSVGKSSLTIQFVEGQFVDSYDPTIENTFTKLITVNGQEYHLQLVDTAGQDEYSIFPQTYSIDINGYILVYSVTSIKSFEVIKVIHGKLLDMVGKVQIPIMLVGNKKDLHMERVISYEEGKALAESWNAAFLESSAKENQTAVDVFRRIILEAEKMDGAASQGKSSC

Rheb, sequence (Q15382 1-169 limits assumed): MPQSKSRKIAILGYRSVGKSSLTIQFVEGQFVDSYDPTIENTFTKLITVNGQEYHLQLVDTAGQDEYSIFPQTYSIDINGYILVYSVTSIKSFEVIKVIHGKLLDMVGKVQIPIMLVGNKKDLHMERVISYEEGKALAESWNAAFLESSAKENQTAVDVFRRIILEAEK

Compound	IC50 [1] [µM]	ASMS (R3/R0) (Rheb)
NC(=O)CCc1cc2c(Oc3ccccc3)c(Cl)ccc2[nH]1 [I-247, 3-(5-chloro-4-phenoxy-1H-indol-2-yl)propanamide]	10 to 100	C (an affinity (R3/R0)<20%)
Cc1c(-c2ccc(Cn3c(C(=O)O)cc4c(Sc5ccc(Cl)cc5Cl)cc(Cl)cc43)cc2)cnn1C [I-77, 6-chloro-4-(2,4-dichlorophenylthio)-1-(4-(1,5-dimethyl-1H-pyrazol-4-yl)benzyl)-1H-indole-2-carboxylic acid]	< 10	B (an affinity (R3/R0) between 100% and 20%)
OCc1cc2c(Oc3cccc(Cl)c3)cccc2[nH]1 [I-275, (4-(3-chlorophenoxy)-1H-indol-2-yl)methanol]	100 to 300	C (an affinity (R3/R0)<20%)
OCc1cc2c(Sc3ccc(Cl)cc3)cc(Cl)cc2[nH]1 [I-187, (6-chloro-4-(4-chlorophenylthio)-1H-indol-2-yl)methanol]	< 10	B (an affinity (R3/R0) between 100% and 20%)
CN(C)Cc1cc2c(Br)cc(Sc3ccc(Cl)c(Cl)c3)cc2n1Cc1ccc(C(=O)N(C)C)cc1 [I-39]	> 100	B (an affinity (R3/R0) between 100% and 20%)
Clc1ccc(Sc2cccc3c2ccn3Cc2ccc(-c3nnn[nH]3)cc2)c(Cl)c1 [I-161, 1-(4-(1H-tetrazol-5-yl)benzyl)-4-(2,4-dichlorophenylthio)-1H-indole]	< 10	A (an affinity (R3/R0)>100%)
NC(=O)c1cc2c(Oc3ccccc3)cc(Cl)cc2[nH]1 [I-169, 6-chloro-4-phenoxy-1H-indole-2-carboxamide]	10 to 100	B (an affinity (R3/R0) between 100% and 20%)
O=C(c1cc2c(Sc3ccc(Cl)cc3Cl)cc(Cl)cc2[nH]1)N1CCNCC1 [I-105, (6-chloro-4-(2,4-dichlorophenylthio)-1H-indol-2-yl)(piperazin-1-yl)methanone]	10 to 100	B (an affinity (R3/R0) between 100% and 20%)
OCc1cc2c(Sc3ccc(F)c(F)c3)cc(Cl)cc2[nH]1 [I-152, (6-chloro-4-(3,4-difluorophenylthio)-1H-indol-2-yl)methanol]	10 to 100	B (an affinity (R3/R0) between 100% and 20%)
CN1CCC(CNC(=O)c2cc3c(Sc4ccc(Cl)cc4Cl)cc(Cl)c(Cl)c3[nH]2)CC1 [I-35, 6,7-dichloro-4-(2,4-dichlorophenylthio)-N-((1-methylpiperidin-4-yl)methyl)-1H-indole-2-carboxamide]	< 10	A (an affinity (R3/R0)>100%)
CN(C)C(=O)c1ccc(Cn2c(C(=O)O)cc3c(Br)cc(Sc4ccc(Oc5ccccc5)cc4)cc32)cc1 [I-15, 4-bromo-1-(4-(dimethylcarbamoyl)benzyl)-6-(4-phenoxyphenyl-thio)-1H-indole-2-carboxylic acid]	< 10	B (an affinity (R3/R0) between 100% and 20%)
CC(C)(C)OC(=O)N1CCN(C(=O)c2ccc(Cn3c(C(=O)O)cc4c(Br)cc(Oc5ccccc5)cc43)cc2)CC1 [I-62]	> 100	B (an affinity (R3/R0) between 100% and 20%)
OCc1cc2c(Br)cc(OCCc3ccccc3)cc2[nH]1 [I-236, (4-Bromo-6-phenethoxy-1H-indol-2-yl)methanol]	10 to 100	B (an affinity (R3/R0) between 100% and 20%)
7-chloro-6-(3,4-dichlorophenylthio)-4-fluoro-1H-indole-2-carboxylic acid [I-66]	< 10	B (an affinity (R3/R0) between 100% and 20%)
CC(=O)c1cc2c(Oc3ccccc3)cc(Cl)cc2[nH]1 [I-150]	> 100	C (an affinity (R3/R0)<20%)
OCc1cc2ccc(Sc3ccc(Cl)cc3)cc2n1Cc1nc[nH]n1 [I-185]	> 100	C (an affinity (R3/R0)<20%)
OCc1cc2c(Oc3ccccc3Cl)cc(Cl)cc2[nH]1 [I-216, (6-chloro-4-(2-chlorophenoxy)-1H-indol-2-yl)methanol]	10 to 100	B (an affinity (R3/R0) between 100% and 20%)
O=C(O)c1cc2cc(SCc3ccc(Cl)cc3)c(Cl)cc2[nH]1 [I-85, 6-chloro-5-(4-chlorobenzylthio)-1H-indole-2-carboxylic acid]	10 to 100	B (an affinity (R3/R0) between 100% and 20%)
OCc1cc2c(Br)cc(Sc3ccc(Cl)c(Cl)c3)cc2[nH]1 [I-133, (4-bromo-6-(3,4-dichlorophenylthio)-1H-indol-2-yl)methanol]	< 10	B (an affinity (R3/R0) between 100% and 20%)
O=C(O)c1cc2c(Sc3ccc(F)c(F)c3)cc(Cl)cc2[nH]1 [I-155, 6-chloro-4-(3,4-difluorophenylthio)-1H-indole-2-carboxylic acid]	10 to 100	B (an affinity (R3/R0) between 100% and 20%)

More lines, main results first:

IC50 [1] [µM]	Compound	ASMS (R3/R0) (Rheb)
< 10	OCc1nc2cc(OCc3ccc(Cl)cc3)c(Cl)c(Cl)c2[nH]1 [I-375, (6,7-dichloro-5-(4-chlorobenzyloxy)-1H-benzo[d]imidazol-2-yl)methanol]	A (an affinity (R3/R0)>100%)
10 to 100	c1ccc(Oc2cccc3c2nc(-c2ncco2)n3Cc2ccc(-c3nnn[nH]3)cc2)cc1 [I-421, 2-(1-(4-(1H-tetrazol-5-yl)benzyl)-4-phenoxy-1H-benzo[d]imidazol-2-yl)oxazole]	C (an affinity (R3/R0)<20%)
10 to 100	OCc1nc2cc(Sc3ccc(Cl)cc3Cl)c(Cl)c(Cl)c2[nH]1 [I-358, (6,7-dichloro-5-(2,4-dichlorophenylthio)-1H-benzo[d]imidazol-2-yl)methanol]	B (an affinity (R3/R0) between 100% and 20%)
10 to 100	N#Cc1ccc(-c2nc3cc(Cl)c(Cl)cc3[nH]2)cc1 [I-370, 4-(5,6-dichloro-1H-benzo[d]imidazol-2-yl)benzonitrile]	B (an affinity (R3/R0) between 100% and 20%)
> 3	OCc1nc2cc(OCc3ccc(OC(F)(F)F)cc3)c(Cl)c(Cl)c2[nH]1 [I-352, (6,7-dichloro-5-(4-(trifluoromethoxy)benzyloxy)-1H-benzo[d]imidazol-2-yl)methanol]	A (an affinity (R3/R0)>100%)
10 to 100	OCc1nc2cc(Cl)c(OCCc3ccc(Cl)cc3)cc2[nH]1 [I-380, (5-chloro-6-(4-chlorophenethoxy)-1H-benzo[d]imidazol-2-yl)methanol]	B (an affinity (R3/R0) between 100% and 20%)
10 to 100	OCc1cc2c(Br)cc(Oc3ccccc3)cc2[nH]1 [I-290, (4-Bromo-6-phenoxy-1H-indol-2-yl)methanol]	B (an affinity (R3/R0) between 100% and 20%)
> 100	Clc1cc2nc(-c3ccnc(N4CCNCC4)c3)[nH]c2cc1Cl [I-346]	A (an affinity (R3/R0)>100%)
> 3	O[C@@H]1CCC[C@H](COc2c(Cl)c(Cl)cc3[nH]c(-c4ccncc4)nc23)C1 [I-324, (1R,3S)-3-((5,6-dichloro-2-(pyridin-4-yl)-1H-benzo[d]imidazol-4-yloxy)methyl)cyclohexanol]	B (an affinity (R3/R0) between 100% and 20%)
> 100	Clc1c(Br)cc2nc(-c3ccncc3)[nH]c2c1Cl [I-357]	A (an affinity (R3/R0)>100%)
